Test results taken from article doi:10.1101/2024.08.19.608619, “Discovery of potent SARS-CoV-2 nsp3 macrodomain inhibitors uncovers lack of translation to cellular antiviral response” (bioRxiv, 2024).
Where two headings read alike, the source gives them in different places.

Tests used:
Assay in all cases: biochemical
Design in all cases: In vitro kinase panel profiling, per cent remaining kinase activity at 10 uM
CK1γ1(h) = biological target: T1, CK1γ1(h) (Homo sapiens, UniProt Q9HCP0); conditions: atp_concentration=15, read-out: % of control remaining
T1 construct: gene CSNK1G1
Excerpt: (§1) We derisk potential for off-target activity by profiling the compound in a CEREP panel, a standard secondary pharmacology assessment, as well as a kinase panel to derisk a potential hinge-binding motif in our leads, and a PARP panel to derisk activity against human […]. Reassuringly, the compounds are selective, with the only off-targets being moderate human CHRM2 and KOR receptors activity associated with ASAP-0011198.

Lyn(h) = Lyn(h) (Homo sapiens, UniProt P07948); conditions: atp_concentration=70, read-out: % of control remaining
Sequence of Lyn(h) (P07948 whole entry): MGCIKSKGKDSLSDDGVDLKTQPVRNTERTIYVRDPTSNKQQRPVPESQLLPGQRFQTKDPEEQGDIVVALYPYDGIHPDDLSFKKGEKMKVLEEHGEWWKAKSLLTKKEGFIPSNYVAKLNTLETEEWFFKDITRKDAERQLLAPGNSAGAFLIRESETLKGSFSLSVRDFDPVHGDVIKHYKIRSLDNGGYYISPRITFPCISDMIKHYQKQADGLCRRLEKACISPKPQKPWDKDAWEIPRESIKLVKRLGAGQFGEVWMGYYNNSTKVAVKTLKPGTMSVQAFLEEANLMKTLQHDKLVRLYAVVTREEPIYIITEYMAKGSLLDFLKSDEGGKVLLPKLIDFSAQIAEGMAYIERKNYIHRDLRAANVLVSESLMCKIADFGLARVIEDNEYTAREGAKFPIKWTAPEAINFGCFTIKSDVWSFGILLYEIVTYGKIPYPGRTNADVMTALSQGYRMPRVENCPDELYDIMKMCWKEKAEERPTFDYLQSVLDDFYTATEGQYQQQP
Excerpt: as §1

mTOR(h) = mTOR(h) (Homo sapiens, UniProt P42345); conditions: atp_concentration=70, read-out: % of control remaining
Excerpt: as §1

c-RAF(h) = biological target: T2, c-RAF(h) (Homo sapiens, UniProt P04049); conditions: atp_concentration=120, read-out: % of control remaining
T2 construct: gene RAF1
Excerpt: as §1

[1] = biological target: T3, PI3 Kinase (p110δ/p85α)(h) (Homo sapiens, UniProt O00329); conditions: atp_concentration=200, read-out: % of control remaining
T3 construct: gene PIK3CD
T3 sequence (O00329 whole entry): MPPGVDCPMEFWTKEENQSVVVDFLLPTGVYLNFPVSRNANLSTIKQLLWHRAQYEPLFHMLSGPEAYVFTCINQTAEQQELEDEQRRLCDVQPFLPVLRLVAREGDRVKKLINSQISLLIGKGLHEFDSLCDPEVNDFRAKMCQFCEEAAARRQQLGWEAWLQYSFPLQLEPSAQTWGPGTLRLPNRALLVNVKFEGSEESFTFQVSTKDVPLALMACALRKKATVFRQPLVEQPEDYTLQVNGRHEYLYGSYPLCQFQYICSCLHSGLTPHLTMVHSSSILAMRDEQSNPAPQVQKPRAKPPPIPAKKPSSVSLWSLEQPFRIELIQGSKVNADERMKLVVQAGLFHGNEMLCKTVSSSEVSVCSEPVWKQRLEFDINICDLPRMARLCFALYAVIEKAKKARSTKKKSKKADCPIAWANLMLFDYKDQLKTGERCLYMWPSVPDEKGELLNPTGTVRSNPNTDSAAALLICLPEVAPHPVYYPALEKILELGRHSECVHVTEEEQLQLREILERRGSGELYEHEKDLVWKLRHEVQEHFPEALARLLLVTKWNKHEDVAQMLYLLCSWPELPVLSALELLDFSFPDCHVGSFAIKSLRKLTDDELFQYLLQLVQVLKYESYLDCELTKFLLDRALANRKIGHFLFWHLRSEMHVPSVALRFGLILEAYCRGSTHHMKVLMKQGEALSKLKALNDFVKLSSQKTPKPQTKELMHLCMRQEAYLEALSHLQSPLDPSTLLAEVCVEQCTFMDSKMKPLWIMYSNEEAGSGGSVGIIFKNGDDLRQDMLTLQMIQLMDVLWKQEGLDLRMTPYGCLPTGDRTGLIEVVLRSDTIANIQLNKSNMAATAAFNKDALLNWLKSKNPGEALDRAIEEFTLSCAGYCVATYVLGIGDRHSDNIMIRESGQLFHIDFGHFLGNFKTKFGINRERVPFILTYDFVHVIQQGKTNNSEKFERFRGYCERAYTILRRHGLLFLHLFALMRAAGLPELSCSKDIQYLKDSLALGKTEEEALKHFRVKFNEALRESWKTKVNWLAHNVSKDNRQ
T3 sequence (P27986 whole entry partner): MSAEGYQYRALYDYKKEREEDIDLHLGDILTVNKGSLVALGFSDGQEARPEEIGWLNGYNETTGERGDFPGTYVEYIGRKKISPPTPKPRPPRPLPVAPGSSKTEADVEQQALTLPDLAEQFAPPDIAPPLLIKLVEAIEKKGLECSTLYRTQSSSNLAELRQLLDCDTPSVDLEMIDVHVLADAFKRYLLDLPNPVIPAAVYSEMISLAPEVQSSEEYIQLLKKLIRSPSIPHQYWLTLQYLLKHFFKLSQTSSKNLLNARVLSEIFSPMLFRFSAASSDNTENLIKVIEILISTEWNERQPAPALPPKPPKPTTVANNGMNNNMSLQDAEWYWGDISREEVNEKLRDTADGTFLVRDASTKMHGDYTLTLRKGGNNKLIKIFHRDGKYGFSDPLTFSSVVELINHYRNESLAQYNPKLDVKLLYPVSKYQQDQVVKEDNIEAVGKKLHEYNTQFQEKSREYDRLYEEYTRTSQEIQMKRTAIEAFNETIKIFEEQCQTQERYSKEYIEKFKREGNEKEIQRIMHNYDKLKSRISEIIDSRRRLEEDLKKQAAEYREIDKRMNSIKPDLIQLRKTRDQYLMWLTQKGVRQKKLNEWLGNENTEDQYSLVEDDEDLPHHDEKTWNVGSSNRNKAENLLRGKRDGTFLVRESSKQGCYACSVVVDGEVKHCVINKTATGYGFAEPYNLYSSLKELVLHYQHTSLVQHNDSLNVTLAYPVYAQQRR
Excerpt: as §1

MST1(h) = biological target: T4, MST1(h) (Homo sapiens, UniProt Q13043); conditions: atp_concentration=90, read-out: % of control remaining
T4 construct: gene STK4
T4 sequence (Q13043 1-487): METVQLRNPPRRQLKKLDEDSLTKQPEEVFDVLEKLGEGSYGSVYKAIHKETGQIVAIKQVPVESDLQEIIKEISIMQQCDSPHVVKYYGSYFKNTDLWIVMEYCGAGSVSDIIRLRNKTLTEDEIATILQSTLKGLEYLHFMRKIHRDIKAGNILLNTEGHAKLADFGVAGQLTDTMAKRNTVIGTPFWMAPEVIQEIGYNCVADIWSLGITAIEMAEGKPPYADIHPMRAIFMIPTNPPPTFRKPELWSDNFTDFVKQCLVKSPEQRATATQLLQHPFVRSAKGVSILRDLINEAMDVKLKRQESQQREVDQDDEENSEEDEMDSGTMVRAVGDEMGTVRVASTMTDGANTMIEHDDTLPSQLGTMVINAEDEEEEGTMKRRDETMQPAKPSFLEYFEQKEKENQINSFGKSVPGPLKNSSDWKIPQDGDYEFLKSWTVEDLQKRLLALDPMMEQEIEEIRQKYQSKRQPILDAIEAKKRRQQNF
Excerpt: as §1

PKG1α(h) = biological target: T5, PKG1α(h) (Homo sapiens, UniProt Q13976); conditions: atp_concentration=90, read-out: % of control remaining
T5 construct: gene PRKG1; isoform alpha
T5 sequence (Q13976 1-671): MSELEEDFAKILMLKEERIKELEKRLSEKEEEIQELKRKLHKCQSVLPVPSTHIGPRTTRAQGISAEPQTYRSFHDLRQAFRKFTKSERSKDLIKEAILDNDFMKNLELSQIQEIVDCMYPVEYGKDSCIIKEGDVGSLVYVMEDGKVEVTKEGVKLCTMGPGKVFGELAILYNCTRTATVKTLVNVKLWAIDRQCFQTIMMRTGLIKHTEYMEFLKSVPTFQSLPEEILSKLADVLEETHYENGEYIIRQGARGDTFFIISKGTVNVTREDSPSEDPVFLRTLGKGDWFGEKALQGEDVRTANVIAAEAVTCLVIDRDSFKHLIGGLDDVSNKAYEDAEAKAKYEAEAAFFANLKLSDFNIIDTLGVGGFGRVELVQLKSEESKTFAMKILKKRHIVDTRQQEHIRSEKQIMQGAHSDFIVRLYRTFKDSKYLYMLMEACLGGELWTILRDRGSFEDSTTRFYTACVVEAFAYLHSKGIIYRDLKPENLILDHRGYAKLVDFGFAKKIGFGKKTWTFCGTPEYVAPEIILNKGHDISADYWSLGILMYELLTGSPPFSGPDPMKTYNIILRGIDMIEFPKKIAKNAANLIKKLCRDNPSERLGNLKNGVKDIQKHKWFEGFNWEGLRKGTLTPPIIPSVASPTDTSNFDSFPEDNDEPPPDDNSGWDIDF
Excerpt: as §1

[2] = biological target: T6, PI3 Kinase (p110α/p85α)(h) (Homo sapiens, UniProt P42336); conditions: atp_concentration=200, read-out: % of control remaining
T6 construct: gene PIK3CA
T6 sequence (P42336 whole entry): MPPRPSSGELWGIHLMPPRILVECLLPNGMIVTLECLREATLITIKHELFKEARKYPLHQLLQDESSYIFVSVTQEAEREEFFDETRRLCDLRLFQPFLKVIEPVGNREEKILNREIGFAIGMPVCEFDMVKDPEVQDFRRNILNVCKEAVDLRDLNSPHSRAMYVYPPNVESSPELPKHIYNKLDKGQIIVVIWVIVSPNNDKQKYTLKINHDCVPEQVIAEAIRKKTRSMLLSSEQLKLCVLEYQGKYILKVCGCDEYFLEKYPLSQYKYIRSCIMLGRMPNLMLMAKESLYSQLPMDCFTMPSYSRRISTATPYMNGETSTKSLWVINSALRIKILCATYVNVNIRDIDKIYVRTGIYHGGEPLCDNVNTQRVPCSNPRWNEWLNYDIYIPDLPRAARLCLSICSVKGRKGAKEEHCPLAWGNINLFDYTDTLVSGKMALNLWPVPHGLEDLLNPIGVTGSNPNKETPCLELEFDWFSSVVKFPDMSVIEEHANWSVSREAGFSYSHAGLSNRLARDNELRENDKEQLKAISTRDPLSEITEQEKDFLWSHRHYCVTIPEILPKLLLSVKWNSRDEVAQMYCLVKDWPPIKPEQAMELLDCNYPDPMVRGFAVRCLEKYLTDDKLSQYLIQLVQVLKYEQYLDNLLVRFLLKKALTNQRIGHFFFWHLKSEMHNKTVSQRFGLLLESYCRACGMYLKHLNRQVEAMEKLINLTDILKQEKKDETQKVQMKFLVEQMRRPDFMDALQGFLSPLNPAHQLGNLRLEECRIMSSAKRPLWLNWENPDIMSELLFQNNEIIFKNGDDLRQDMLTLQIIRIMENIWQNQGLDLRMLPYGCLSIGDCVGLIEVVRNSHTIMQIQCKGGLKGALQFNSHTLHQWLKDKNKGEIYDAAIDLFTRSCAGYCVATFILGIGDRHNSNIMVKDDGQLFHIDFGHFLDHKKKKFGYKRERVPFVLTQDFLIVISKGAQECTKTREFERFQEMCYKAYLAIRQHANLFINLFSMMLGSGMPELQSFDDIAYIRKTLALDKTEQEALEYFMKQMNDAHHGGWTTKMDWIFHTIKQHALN
T6 sequence (P27986 whole entry partner): as the sequence (P27986 whole entry partner) above
Excerpt: as §1

SRPK1(h) = SRPK1(h) (Homo sapiens, UniProt Q96SB4); conditions: atp_concentration=10, read-out: % of control remaining
Excerpt: as §1

SAPK2a(h) = biological target: T7, SAPK2a(h) (Homo sapiens, UniProt Q16539); conditions: atp_concentration=90, read-out: % of control remaining
T7 construct: gene MAPK14
Excerpt: as §1

ROCK-I(h) = biological target: T8, ROCK-I(h) (Homo sapiens, UniProt Q13464); conditions: atp_concentration=70, read-out: % of control remaining
T8 construct: gene ROCK1
T8 sequence (Q13464 whole entry): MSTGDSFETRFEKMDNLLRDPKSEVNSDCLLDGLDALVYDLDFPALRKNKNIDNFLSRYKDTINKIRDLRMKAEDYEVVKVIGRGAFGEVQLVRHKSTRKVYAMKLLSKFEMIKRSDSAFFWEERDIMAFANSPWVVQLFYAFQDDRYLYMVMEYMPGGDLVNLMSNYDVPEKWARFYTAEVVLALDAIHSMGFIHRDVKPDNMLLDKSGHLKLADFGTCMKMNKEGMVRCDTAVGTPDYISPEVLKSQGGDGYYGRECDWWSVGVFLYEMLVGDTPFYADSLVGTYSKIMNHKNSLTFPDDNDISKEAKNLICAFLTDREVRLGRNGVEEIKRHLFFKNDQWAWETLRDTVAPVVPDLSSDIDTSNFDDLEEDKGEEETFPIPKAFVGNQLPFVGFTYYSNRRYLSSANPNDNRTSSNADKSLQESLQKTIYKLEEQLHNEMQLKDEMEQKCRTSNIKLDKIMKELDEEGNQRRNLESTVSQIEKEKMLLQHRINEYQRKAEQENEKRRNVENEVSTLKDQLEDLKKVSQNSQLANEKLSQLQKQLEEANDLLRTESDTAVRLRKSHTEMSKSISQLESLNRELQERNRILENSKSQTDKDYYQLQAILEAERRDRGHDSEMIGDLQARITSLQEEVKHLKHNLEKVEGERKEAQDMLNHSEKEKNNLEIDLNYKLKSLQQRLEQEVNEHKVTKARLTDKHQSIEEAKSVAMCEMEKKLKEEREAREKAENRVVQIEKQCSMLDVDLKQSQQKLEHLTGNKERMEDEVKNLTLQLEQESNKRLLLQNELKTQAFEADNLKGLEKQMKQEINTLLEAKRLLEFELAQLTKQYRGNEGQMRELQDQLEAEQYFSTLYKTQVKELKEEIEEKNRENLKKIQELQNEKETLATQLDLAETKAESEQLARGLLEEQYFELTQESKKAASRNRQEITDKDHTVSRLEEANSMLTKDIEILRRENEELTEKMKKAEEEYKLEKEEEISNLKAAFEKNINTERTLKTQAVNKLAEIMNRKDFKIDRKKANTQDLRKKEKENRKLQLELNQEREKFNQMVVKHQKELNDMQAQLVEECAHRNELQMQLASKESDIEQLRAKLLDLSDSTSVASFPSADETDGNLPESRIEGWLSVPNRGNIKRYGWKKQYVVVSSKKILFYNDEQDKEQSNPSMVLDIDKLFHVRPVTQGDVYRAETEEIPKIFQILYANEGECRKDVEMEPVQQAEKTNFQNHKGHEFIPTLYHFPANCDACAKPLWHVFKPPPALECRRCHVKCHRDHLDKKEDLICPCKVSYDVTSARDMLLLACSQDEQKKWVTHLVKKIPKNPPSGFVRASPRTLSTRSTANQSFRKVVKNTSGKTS
Excerpt: as §1

GSK3β(h) = biological target: T9, GSK3β(h) (Homo sapiens, UniProt P49841); conditions: atp_concentration=15, read-out: % of control remaining
T9 construct: gene GSK3B
Excerpt: as §1

Plk3(h) = Plk3(h) (Homo sapiens, UniProt Q9H4B4); conditions: atp_concentration=70, read-out: % of control remaining
Excerpt: as §1

CNCc1cc(-c2cc3c(N[C@@H](c4ccc5c(c4)S(=O)(=O)CCC5)C(C)C)ncnc3[nH]2)co1 [ASAP-0011176]
remaining activity at 10 µM (CK1γ1(h); batch_name=ASAP-0011176-002): 99% | remaining activity at 10 µM (Lyn(h); batch_name=ASAP-0011176-002): 47% | remaining activity at 10 µM (mTOR(h); batch_name=ASAP-0011176-002): 105% | remaining activity at 10 µM (c-RAF(h); batch_name=ASAP-0011176-002): 100% | remaining activity at 10 µM ([1]; batch_name=ASAP-0011176-002): 80% | remaining activity at 10 µM (MST1(h); batch_name=ASAP-0011176-002): 108% | remaining activity at 10 µM (PKG1α(h); batch_name=ASAP-0011176-002): 115% | remaining activity at 10 µM ([2]; batch_name=ASAP-0011176-002): 99% | remaining activity at 10 µM (SRPK1(h); batch_name=ASAP-0011176-002): 101% | remaining activity at 10 µM (SAPK2a(h); batch_name=ASAP-0011176-002): 97% | remaining activity at 10 µM (ROCK-I(h); batch_name=ASAP-0011176-002): 102% | remaining activity at 10 µM (GSK3β(h); batch_name=ASAP-0011176-002): 92% | remaining activity at 10 µM (Plk3(h); batch_name=ASAP-0011176-002): 124%

CC(C)C(Nc1ncnc2[nH]c(C(=O)NC3CCN(C)C3)cc12)c1ccc2c(c1)S(=O)(=O)CCC2 (stereo not drawn) [ASAP-0011198]
remaining activity at 10 µM (CK1γ1(h); batch_name=ASAP-0011198-002): 100% | remaining activity at 10 µM (Lyn(h); batch_name=ASAP-0011198-002): 107% | remaining activity at 10 µM (mTOR(h); batch_name=ASAP-0011198-002): 103% | remaining activity at 10 µM (c-RAF(h); batch_name=ASAP-0011198-002): 105% | remaining activity at 10 µM ([1]; batch_name=ASAP-0011198-002): 99% | remaining activity at 10 µM (MST1(h); batch_name=ASAP-0011198-002): 122% | remaining activity at 10 µM (PKG1α(h); batch_name=ASAP-0011198-002): 116% | remaining activity at 10 µM ([2]; batch_name=ASAP-0011198-002): 104% | remaining activity at 10 µM (SRPK1(h); batch_name=ASAP-0011198-002): 108% | remaining activity at 10 µM (SAPK2a(h); batch_name=ASAP-0011198-002): 97% | remaining activity at 10 µM (ROCK-I(h); batch_name=ASAP-0011198-002): 98% | remaining activity at 10 µM (GSK3β(h); batch_name=ASAP-0011198-002): 93% | remaining activity at 10 µM (Plk3(h); batch_name=ASAP-0011198-002): 98%

Cn1ncc(-c2cc3c(N[C@@H](c4ccc5c(n4)OCCO5)C(C)(C)C)ncnc3[nH]2)c1C#N [ASAP-0011221]
remaining activity at 10 µM (CK1γ1(h); batch_name=ASAP-0011221-002): 94% | remaining activity at 10 µM (Lyn(h); batch_name=ASAP-0011221-002): 101% | remaining activity at 10 µM (mTOR(h); batch_name=ASAP-0011221-002): 105% | remaining activity at 10 µM (c-RAF(h); batch_name=ASAP-0011221-002): 87% | remaining activity at 10 µM ([1]; batch_name=ASAP-0011221-002): 73% | remaining activity at 10 µM (MST1(h); batch_name=ASAP-0011221-002): 115% | remaining activity at 10 µM (PKG1α(h); batch_name=ASAP-0011221-002): 127% | remaining activity at 10 µM ([2]; batch_name=ASAP-0011221-002): 75% | remaining activity at 10 µM (SRPK1(h); batch_name=ASAP-0011221-002): 117% | remaining activity at 10 µM (SAPK2a(h); batch_name=ASAP-0011221-002): 106% | remaining activity at 10 µM (ROCK-I(h); batch_name=ASAP-0011221-002): 129% | remaining activity at 10 µM (GSK3β(h); batch_name=ASAP-0011221-002): 98% | remaining activity at 10 µM (Plk3(h); batch_name=ASAP-0011221-002): 77%

Cc1nn(C)cc1-c1cc2c(NC(c3ccc4c(c3)S(=O)(=O)CCC4)C(C)C)ncnc2[nH]1 (stereo not drawn) [ASAP-0011446]
remaining activity at 10 µM (CK1γ1(h); batch_name=ASAP-0011446-002): 99% | remaining activity at 10 µM (Lyn(h); batch_name=ASAP-0011446-002): 48% | remaining activity at 10 µM (mTOR(h); batch_name=ASAP-0011446-002): 96% | remaining activity at 10 µM (c-RAF(h); batch_name=ASAP-0011446-002): 93% | remaining activity at 10 µM ([1]; batch_name=ASAP-0011446-002): 101% | remaining activity at 10 µM (MST1(h); batch_name=ASAP-0011446-002): 115% | remaining activity at 10 µM (PKG1α(h); batch_name=ASAP-0011446-002): 128% | remaining activity at 10 µM ([2]; batch_name=ASAP-0011446-002): 102% | remaining activity at 10 µM (SRPK1(h); batch_name=ASAP-0011446-002): 104% | remaining activity at 10 µM (SAPK2a(h); batch_name=ASAP-0011446-002): 98% | remaining activity at 10 µM (ROCK-I(h); batch_name=ASAP-0011446-002): 103% | remaining activity at 10 µM (GSK3β(h); batch_name=ASAP-0011446-002): 96% | remaining activity at 10 µM (Plk3(h); batch_name=ASAP-0011446-002): 104%

C[C@H](C(=O)O)[C@@H](NC(=O)c1ncnc2[nH]ccc12)c1ccc(Br)cc1 [ASAP-0014722]
remaining activity at 10 µM (CK1γ1(h); batch_name=ASAP-0014722-002): 92% | remaining activity at 10 µM (Lyn(h); batch_name=ASAP-0014722-002): 94% | remaining activity at 10 µM (mTOR(h); batch_name=ASAP-0014722-002): 100% | remaining activity at 10 µM (c-RAF(h); batch_name=ASAP-0014722-002): 108% | remaining activity at 10 µM ([1]; batch_name=ASAP-0014722-002): 97% | remaining activity at 10 µM (MST1(h); batch_name=ASAP-0014722-002): 121% | remaining activity at 10 µM (PKG1α(h); batch_name=ASAP-0014722-002): 118% | remaining activity at 10 µM ([2]; batch_name=ASAP-0014722-002): 100% | remaining activity at 10 µM (SRPK1(h); batch_name=ASAP-0014722-002): 97% | remaining activity at 10 µM (SAPK2a(h); batch_name=ASAP-0014722-002): 103% | remaining activity at 10 µM (ROCK-I(h); batch_name=ASAP-0014722-002): 90% | remaining activity at 10 µM (GSK3β(h); batch_name=ASAP-0014722-002): 93% | remaining activity at 10 µM (Plk3(h); batch_name=ASAP-0014722-002): 98%

COc1ccc([C@H](Cc2nnn[nH]2)NC(=O)c2ncnc3[nH]ccc23)cc1 [ASAP-0015381]
remaining activity at 10 µM (CK1γ1(h); batch_name=ASAP-0015381-001): 94% | remaining activity at 10 µM (Lyn(h); batch_name=ASAP-0015381-001): 108% | remaining activity at 10 µM (mTOR(h); batch_name=ASAP-0015381-001): 97% | remaining activity at 10 µM (c-RAF(h); batch_name=ASAP-0015381-001): 103% | remaining activity at 10 µM ([1]; batch_name=ASAP-0015381-001): 97% | remaining activity at 10 µM (MST1(h); batch_name=ASAP-0015381-001): 127% | remaining activity at 10 µM (PKG1α(h); batch_name=ASAP-0015381-001): 121% | remaining activity at 10 µM ([2]; batch_name=ASAP-0015381-001): 99% | remaining activity at 10 µM (SRPK1(h); batch_name=ASAP-0015381-001): 103% | remaining activity at 10 µM (SAPK2a(h); batch_name=ASAP-0015381-001): 103% | remaining activity at 10 µM (ROCK-I(h); batch_name=ASAP-0015381-001): 103% | remaining activity at 10 µM (GSK3β(h); batch_name=ASAP-0015381-001): 90% | remaining activity at 10 µM (Plk3(h); batch_name=ASAP-0015381-001): 102%
